Reference: patent publication US9695209B2, “Synthesis of amphiphilic calixarene glycoside detergents and use of same for extracting and stabilizing native functional membrane proteins” (CALIXAR, priority 2014, dated 2017)
Where two headings read alike, the source gives them in different places. Blank lines part the entries; values can stand above or below the compound they belong to.

Assays:
[1] = CMC (H2O) of known detergents as stated in figure legend; format: physicochemical; conditions: no source given
[2] = biological target: T1, Bacteriorhodopsin protein (bR) (Halobacterium salinarum, UniProt P02945); assay: Stability test of bacteriorhodopsin protein over time (absorbance at 550 nm); conditions: after 1 month and a half exposure at 37° C. in the dark
T1 sequence (P02945 14-262): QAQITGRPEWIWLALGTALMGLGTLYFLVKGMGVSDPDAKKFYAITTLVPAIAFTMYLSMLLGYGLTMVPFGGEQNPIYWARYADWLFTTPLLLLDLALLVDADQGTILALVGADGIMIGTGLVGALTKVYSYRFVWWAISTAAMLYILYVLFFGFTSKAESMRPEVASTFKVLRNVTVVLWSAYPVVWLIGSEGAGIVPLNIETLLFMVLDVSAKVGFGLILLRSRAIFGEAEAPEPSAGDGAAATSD

A2A adenosine protein = A2A adenosine protein (Homo sapiens, UniProt P29274); assay: Test of solubilization of A2A membrane protein (Western Blot after 100 000 g centrifugation); conditions: for solubility (solubilization) of A2A adenosine protein: 4° C, protein 20 mg/ml
Chain of A2A adenosine protein (P29274 whole entry): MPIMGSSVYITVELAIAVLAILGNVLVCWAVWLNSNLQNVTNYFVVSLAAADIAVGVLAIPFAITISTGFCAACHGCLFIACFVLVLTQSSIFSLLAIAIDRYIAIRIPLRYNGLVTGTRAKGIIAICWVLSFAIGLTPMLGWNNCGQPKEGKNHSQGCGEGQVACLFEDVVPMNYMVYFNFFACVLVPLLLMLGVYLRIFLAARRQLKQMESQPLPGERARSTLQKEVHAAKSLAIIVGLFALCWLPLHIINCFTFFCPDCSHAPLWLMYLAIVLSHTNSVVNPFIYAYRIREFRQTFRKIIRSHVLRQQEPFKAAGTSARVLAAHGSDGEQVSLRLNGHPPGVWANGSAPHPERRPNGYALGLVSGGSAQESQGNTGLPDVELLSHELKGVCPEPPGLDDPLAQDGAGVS
Protocol: Solubility Test of Protein of Interest: A2A Adenosine.
The protein content was set at 20 mg/ml (20 mM Tris-Cl pH 8.0, 150 mM NaCl, 10% Glycerol). The solubilization is effected at 4° C. The solubilized or non-solubilized protein fractions are separated by a 100 000 g centrifugation step for 1 hour at 4° C.

[3] = Average particle size of aggregates by DLS (Dynamic Light Scattering); format: physicochemical
Protocol: FIGS. 3a) and 3b) are two diagrams showing the average particle size obtained by DLS (Dynamic Light Scattering) analysis of CALX173GALO compound (FIG. 3a) and CALX173GLUK compound (FIG. 3b) at respectively 0.47 and 0.08 mM.
FIGS. 3a and 3b show the aggregation state of CALX173GALO and CALX173GLUK. As illustrated, all the systems observed form aggregates of the micellar type.

[4] = from VanAken et al. 1986; cited from earlier work

CMC (H2O) [1]: 2.5 mM
Compound: 25-heptyloxy-26,27,28-tris(hydroxyl)calix-[4]-arene-5,11,17-tris(acetic acid) sodium salt [CALX173ACE]

Compound: CCCCCCCCO[C@@H]1O[C@H](CO)[C@@H](O)[C@H](O)[C@H]1O [OG, Octyl Glucoside, reference compound]
stability of the bR protein [2]: nonexistent

Compound: CCCCCCCOc1c2cccc1Cc1cc(CCO[C@@H]3O[C@H](CO)[C@H](O)[C@H](O)[C@H]3O)cc(c1OC)Cc1cc(CCO[C@@H]3O[C@H](CO)[C@H](O)[C@H](O)[C@H]3O)cc(c1OC)Cc1cc(CCO[C@@H]3O[C@H](CO)[C@H](O)[C@H](O)[C@H]3O)cc(c1OC)C2 [CALX173GALO, 5,11,17-Tris[2-(b-D-galactopyranosyloxy)ethyl]-25-heptoxy-26,27,28-trismethoxy-calix[4]arene]
solubilization of A2A protein compared with reference compounds DDM and CALX173ACE (A2A adenosine protein; 20 CMC): better
solubility (solubilization) of A2A adenosine protein (A2A adenosine protein; detergent at 20 CMC): partial
dparticules (average particle size by DLS) ([3]; at 0.47 mM): 5.46 nm
absorbance at 550 nm of bR protein [2]: around 0.4

Compound: Maltose-Neopentyl Glycol [MNG-12, reference compound]
absorbance at 550 nm of bR protein [2]: around 0.4

Compound: 5,11,17-Tris{2-[4-(b-D-glucopyranosyl)-1H-1,2,3-triazol-1-yl]-ethyl}-25-heptoxy-26,27,28-trismethoxy-calix[4]arene [CALX173GLUK]
solubility (solubilization) of A2A adenosine protein (A2A adenosine protein; detergent at 8 CMC): nonexistent
solubility (solubilization) of A2A adenosine protein (A2A adenosine protein; detergent at 20 CMC): enhances the solubilization
dparticules (average particle size by DLS) ([3]; at 0.08 mM): 5.53 nm
absorbance at 550 nm of bR protein [2]: 0.75

solubilization of A2A protein (A2A adenosine protein; 20 CMC, reference compounds): about 20%
solubility (solubilization) of A2A adenosine protein (A2A adenosine protein; detergent at 20 CMC): partial
Compound: CCCCCCCCCCCCO[C@@H]1O[C@H](CO)[C@@H](O[C@H]2O[C@H](CO)[C@@H](O)[C@H](O)[C@H]2O)[C@H](O)[C@H]1O [DDM, n-dodecyl-β-D-maltopyranoside, reference compound]
CMC (H2O) [4]: 0.17 mM
